The subject of the experiment is RSV Long strain. As to the kind of experiment: Viral Cytopathic Effect (CPE) Assay. Type of experiment: cell-based. Particulars: human respiratory syncytial virus, 144 h; RSV Long strain (ATCC), cell viability after 6 days by Cell Counting kit-8. As for the experimental part:
Viral Cytopathic Effect (CPE) Assay
To measure anti-RSV activity of compounds, 96-well plates are seeded with 6×10^3 cells per well in Dulbecco's modified Eagle's medium (DMEM) containing 10% fetal bovine serum (FBS). Cells are infected the next day with sufficient RSV Long strain (ATCC) to produce an approximately 80-90% cytopathic effect after 6 days, in the presence of serial half-log diluted compound in a total volume of 200 μL per well. The viability of cells is assessed after 6 days using Cell Counting kit-8 (Dojindo Molecular Technologies). The absorbance at 450 nm and referenced at 630 nm is measured to determine 50% effective concentration (EC50).

The values below come from patent US9670211B2, “Aza-oxo-indoles for the treatment and prophylaxis of respiratory syncytial virus infection” (Hoffmann-La Roche Inc., priority 2013, dated 2017).

As a reminder, the EC50 is the concentration needed to bring the measured effect to its halfway point. Read a low EC50 as an effect from little substance. Turning to `CC1(C)[C@H](n2c(CN3C(=O)C4(CC4)c4ccncc43)nc3cc(Cl)ccc32)CCS1(=O)=O` (stereo in doubt) [Example 13, 1′-{[5-Chloro-1-(2,2-dimethyl-1,1-dioxidotetrahydrothiophen-3-yl)-1H-benzimidazol-2-yl]methyl}spiro[cyclopropane-1,3′-pyrrolo[2,3-c]pyridin]-2′(1′H)-one], the EC50 was found to be 397 nM.
The result for `CS(=O)(=O)[C@H]1C[C@@H](n2c(CN3C(=O)C4(CC4)c4ccncc43)nc3cc(Cl)ccc32)C1` [Example 1-1, 1′-({5-Chloro-1-[cis-3-(methylsulfonyl)cyclobutyl]-1H-benzimidazol-2-yl}methyl)spiro[cyclopropane-1,3′-pyrrolo[2,3-c]pyridin]-2′(1′H)-one] reads 10 nM.
The molecule `CS(=O)(=O)[C@H]1C[C@H](n2c(CN3C(=O)C4(CC4)c4ccncc43)nc3cc(Cl)ccc32)C1` [Example 1-2, 1′-({5-Chloro-1-[trans-3-(methylsulfonyl)cyclobutyl]-1H-benzimidazol-2-yl}methyl)spiro[cyclopropane-1,3′-pyrrolo[2,3-c]pyridin]-2′(1′H)-one] registered an EC50 of 6 nM.
The result for `O=C1N(Cc2nc3cc(Cl)ccc3n2C2CC3(C2)CS(=O)(=O)C3)c2cnccc2C12CC2` [Example 2-1, 1′-{[5-Chloro-1-(2,2-dioxido-2-thiaspiro[3.3]hept-6-yl)-1H-benzimidazol-2-yl]methyl}spiro[cyclopropane-1,3′-pyrrolo[2,3-c]pyridin]-2′(1′H)-one] reads 4 nM.
`O=C1N(Cc2nc3cc(Cl)ccc3n2C2CCS(=O)(=O)CC2)c2cnccc2C12CC2` [Example 2-2, 1′-{[5-Chloro-1-(1,1-dioxidotetrahydro-2H-thiopyran-4-yl)-1H-benzimidazol-2-yl]methyl}spiro[cyclopropane-1,3′-pyrrolo[2,3-c]pyridin]-2′(1′H)-one] returned an EC50 of 6 nM.
The molecule `O=C1N(Cc2nc3cc(Cl)ccc3n2C2CCCC2)c2cnccc2C12CC2` [Example 2-3, 1′-[(5-Chloro-1-cyclopentyl-1H-benzimidazol-2-yl)methyl]spiro[cyclopropane-1,3′-pyrrolo[2,3-c]pyridin]-2′(1′H)-one] returned an EC50 of 32 nM.
The result for `O=C1N(Cc2nc3cc(Cl)ccc3n2C2COC2)c2cnccc2C12CC2` [Example 2-4, 1′-{[5-Chloro-1-(oxetan-3-yl)-1H-benzimidazol-2-yl]methyl}spiro[cyclopropane-1,3′-pyrrolo[2,3-c]pyridin]-2′(1′H)-one] reads 70 nM; that for `O=C1N(Cc2nc3cc(Cl)ccc3n2C2CC(F)(F)C2)c2cnccc2C12CC2` [Example 2-5, 1′-{[5-Chloro-1-(3,3-difluorocyclobutyl)-1H-benzimidazol-2-yl]methyl}spiro[cyclopropane-1,3′-pyrrolo[2,3-c]pyridin]-2′(1′H)-one], 16 nM; that for `O=C1N(Cc2nc3cc(Cl)ccc3n2C2CCOCC2)c2cnccc2C12CC2` [Example 2-6, 1′-{[5-Chloro-1-(tetrahydro-2H-pyran-4-yl)-1H-benzimidazol-2-yl]methyl}spiro[cyclopropane-1,3′-pyrrolo[2,3-c]pyridin]-2′(1′H)-one], 23 nM.
For `O=C1N(Cc2nc3cc(Cl)ccc3n2C2CCC(O)CC2)c2cnccc2C12CC2` (stereo not shown) [Example 2-7, 1′-{[5-Chloro-1-(4-hydroxycyclohexyl)-1H-benzimidazol-2-yl]methyl}spiro[cyclopropane-1,3′-pyrrolo[2,3-c]pyridin]-2′(1′H)-one], the midpoint of the response, the EC50, lay at 1.1 nM.
For the molecule `O=C1N(Cc2nc3cc(Cl)ccc3n2C2CCC(O)C2)c2cnccc2C12CC2` (stereo not shown) [Example 2-8, 1′-{[5-Chloro-1-(3-hydroxycyclopentyl)-1H-benzimidazol-2-yl]methyl}spiro[cyclopropane-1,3′-pyrrolo[2,3-c]pyridin]-2′(1′H)-one], the response was half-maximal at 11 nM (EC50).
The result for `O=C1NCCC1n1c(CN2C(=O)C3(CC3)c3ccncc32)nc2cc(Cl)ccc21` (stereo not shown) [Example 2-9, 1′-{[5-Chloro-1-(2-oxopyrrolidin-3-yl)-1H-benzimidazol-2-yl]methyl}spiro[cyclopropane-1,3′-pyrrolo[2,3-c]pyridin]-2′(1′H)-one] reads 164 nM; that for `O=C1CC(n2c(CN3C(=O)C4(CC4)c4ccncc43)nc3cc(Cl)ccc32)CCN1` (stereo not shown) [Example 2-10, 1′-{[5-Chloro-1-(2-oxopiperidin-4-yl)-1H-benzimidazol-2-yl]methyl}spiro[cyclopropane-1,3′-pyrrolo[2,3-c]pyridin]-2′(1′H)-one], 5 nM.
The result for `O=C1N(Cc2nc3cc(Cl)ccc3n2C2CCC(F)(F)C2)c2cnccc2C12CC2` (stereo not shown) [Example 2-11, 1′-{[5-Chloro-1-(3,3-difluorocyclopentyl)-1H-benzimidazol-2-yl]methyl}spiro[cyclopropane-1,3′-pyrrolo[2,3-c]pyridin]-2′(1′H)-one] reads 17 nM; that for `O=C1N(Cc2nc3cc(Cl)ccc3n2[C@H]2CC[C@@H](C(=O)O)CC2)c2cnccc2C12CC2` [Example 2-12, cis-4-{5-Chloro-2-[(2′-oxospiro[cyclopropane-1,3′-pyrrolo[2,3-c]pyridin]-1′(2′H)-yl)methyl]-1H-benzimidazol-1-yl}cyclohexanecarboxylic acid], 510 nM; that for `O=C1N(Cc2nc3cc(Cl)cnc3n2C2CCS(=O)(=O)C2)c2cnccc2C12CC2` (stereo not shown) [Example 2-13, 1′-{[6-Chloro-3-(1,1-dioxidotetrahydrothiophen-3-yl)-3H-imidazo[4,5-b]pyridin-2-yl]methyl}spiro[cyclopropane-1,3′-pyrrolo[2,3-c]pyridin]-2′(1′H)-one], 15 nM.
In turn, `O=C1N(Cc2nc3cc(Cl)ccc3n2C2CCOC2)c2cnccc2C12CC2` (stereo not shown) [Example 2-14, 1′-{[5-Chloro-1-(tetrahydrofuran-3-yl)-1H-benzimidazol-2-yl]methyl}spiro[cyclopropane-1,3′-pyrrolo[2,3-c]pyridin]-2′(1′H)-one] returned a 50% effective concentration (EC50) of 6 nM.
The result for `CC(C)(C)OC(=O)N1CCC(n2c(CN3C(=O)C4(CC4)c4ccncc43)nc3cc(Cl)ccc32)C1` (stereo not shown) [Example 2-15, tert-Butyl 3-{5-chloro-2-[(2′-oxospiro[cyclopropane-1,3′-pyrrolo[2,3-c]pyridin]-1′(2′H)-yl)methyl]-1H-benzimidazol-1-yl}pyrrolidine-1-carboxylate] reads 31 nM.
On to `O=C1N(Cc2nc3cc(Cl)ccc3n2C(CO)CO)c2cnccc2C12CC2` [Example 2-16, 1′-{[5-Chloro-1-(1,3-dihydroxypropan-2-yl)-1H-benzimidazol-2-yl]methyl}spiro[cyclopropane-1,3′-pyrrolo[2,3-c]pyridin]-2′(1′H)-one], for which the EC50 came out at 122 nM.
The result for `C[C@]1(O)C[C@H](n2c(CN3C(=O)C4(CC4)c4ccncc43)nc3cc(Cl)ccc32)C1` [Example 2-17, 1′-{[5-Chloro-1-(trans-3-hydroxy-3-methylcyclobutyl)-1H-benzimidazol-2-yl]methyl}spiro[cyclopropane-1,3′-pyrrolo[2,3-c]pyridin]-2′(1′H)-one] reads 5 nM; that for `O=C1N(Cc2nc3cc(Cl)ccc3n2C2CCS(=O)(=O)C2)c2cnccc2C12CC2` (stereo not shown) [Example 3-1, 1′-{[5-Chloro-1-(1,1-dioxidotetrahydrothiophen-3-yl)-1H-benzimidazol-2-yl]methyl}spiro[cyclopropane-1,3′-pyrrolo[2,3-c]pyridin]-2′(1′H)-one], 6 nM; that for `O=C1N(Cc2nc3cc(Cl)ccc3n2[C@H]2CCS(=O)(=O)C2)c2cnccc2C12CC2` [Example 3-2, 1′-({5-Chloro-1-[(3S)-1,1-dioxidotetrahydrothiophen-3-yl]-1H-benzimidazol-2-yl}methyl)spiro[cyclopropane-1,3′-pyrrolo[2,3-c]pyridin]-2′(1′H)-one], 10 nM.
On to `O=C1N(Cc2nc3cc(Cl)ccc3n2[C@@H]2CCS(=O)(=O)C2)c2cnccc2C12CC2` [Example 3-3, 1′-({5-Chloro-1-[(3R)-1,1-dioxidotetrahydrothiophen-3-yl]-1H-benzimidazol-2-yl}methyl)spiro[cyclopropane-1,3′-pyrrolo[2,3-c]pyridin]-2′(1′H)-one], for which the response was half-maximal at 1.6 nM (EC50).
The result for `O=C1N(Cc2nc3cc(Cl)ccc3n2C2CS(=O)(=O)C2)c2cnccc2C12CC2` [Example 4-1, 1′-{[5-Chloro-1-(1,1-dioxidothietan-3-yl)-1H-benzimidazol-2-yl]methyl}spiro[cyclopropane-1,3′-pyrrolo[2,3-c]pyridin]-2′(1′H)-one] reads 6.5 nM.
The result for `CC1(C)C(=O)N(Cc2nc3cc(Cl)ccc3n2C2CS(=O)(=O)C2)c2cnccc21` [Example 4-2, 1-{[5-Chloro-1-(1,1-dioxidothietan-3-yl)-1H-benzimidazol-2-yl]methyl}-3,3-dimethyl-1,3-dihydro-2H-pyrrolo[2,3-c]pyridin-2-one] reads 95 nM; that for `CCC1(CC)C(=O)N(Cc2nc3cc(Cl)ccc3n2C2CS(=O)(=O)C2)c2cnccc21` [Example 4-3, 1-{[5-Chloro-1-(1,1-dioxidothietan-3-yl)-1H-benzimidazol-2-yl]methyl}-3,3-diethyl-1,3-dihydro-2H-pyrrolo[2,3-c]pyridin-2-one], 207 nM; that for `O=C1N(Cc2nc3cc(Cl)ccc3n2C2C[S+]([O-])C2)c2cnccc2C12CC2` (stereo not shown) [Example 5, 1′-{[5-Chloro-1-(1-oxidothietan-3-yl)-1H-benzimidazol-2-yl]methyl}spiro[cyclopropane-1,3′-pyrrolo[2,3-c]pyridin]-2′(1′H)-one], 5 nM.
For `O=C1N(Cc2nc3cc(Cl)cc(F)c3n2C2CS(=O)(=O)C2)c2cnccc2C12CC2` [Example 6, 1′-{[5-Chloro-1-(1,1-dioxidothietan-3-yl)-7-fluoro-1H-benzimidazol-2-yl]methyl}spiro[cyclopropane-1,3′-pyrrolo[2,3-c]pyridin]-2′(1′H)-one], the EC50 was 0.9 nM.
